The source made the active and inactive calls. For most assays here, no stated cut-off is given here; in the data, actives have a measured Kd and inactives only a lower limit.

13 compounds from ChEMBL document CHEMBL3991601, “The target landscape of clinical kinase drugs” (Science, 2017) can be followed below.

The target in test [1] is T1, Serine/threonine-protein kinase LATS1 (Homo sapiens, UniProt O95835).
T1 sequence (O95835 whole entry): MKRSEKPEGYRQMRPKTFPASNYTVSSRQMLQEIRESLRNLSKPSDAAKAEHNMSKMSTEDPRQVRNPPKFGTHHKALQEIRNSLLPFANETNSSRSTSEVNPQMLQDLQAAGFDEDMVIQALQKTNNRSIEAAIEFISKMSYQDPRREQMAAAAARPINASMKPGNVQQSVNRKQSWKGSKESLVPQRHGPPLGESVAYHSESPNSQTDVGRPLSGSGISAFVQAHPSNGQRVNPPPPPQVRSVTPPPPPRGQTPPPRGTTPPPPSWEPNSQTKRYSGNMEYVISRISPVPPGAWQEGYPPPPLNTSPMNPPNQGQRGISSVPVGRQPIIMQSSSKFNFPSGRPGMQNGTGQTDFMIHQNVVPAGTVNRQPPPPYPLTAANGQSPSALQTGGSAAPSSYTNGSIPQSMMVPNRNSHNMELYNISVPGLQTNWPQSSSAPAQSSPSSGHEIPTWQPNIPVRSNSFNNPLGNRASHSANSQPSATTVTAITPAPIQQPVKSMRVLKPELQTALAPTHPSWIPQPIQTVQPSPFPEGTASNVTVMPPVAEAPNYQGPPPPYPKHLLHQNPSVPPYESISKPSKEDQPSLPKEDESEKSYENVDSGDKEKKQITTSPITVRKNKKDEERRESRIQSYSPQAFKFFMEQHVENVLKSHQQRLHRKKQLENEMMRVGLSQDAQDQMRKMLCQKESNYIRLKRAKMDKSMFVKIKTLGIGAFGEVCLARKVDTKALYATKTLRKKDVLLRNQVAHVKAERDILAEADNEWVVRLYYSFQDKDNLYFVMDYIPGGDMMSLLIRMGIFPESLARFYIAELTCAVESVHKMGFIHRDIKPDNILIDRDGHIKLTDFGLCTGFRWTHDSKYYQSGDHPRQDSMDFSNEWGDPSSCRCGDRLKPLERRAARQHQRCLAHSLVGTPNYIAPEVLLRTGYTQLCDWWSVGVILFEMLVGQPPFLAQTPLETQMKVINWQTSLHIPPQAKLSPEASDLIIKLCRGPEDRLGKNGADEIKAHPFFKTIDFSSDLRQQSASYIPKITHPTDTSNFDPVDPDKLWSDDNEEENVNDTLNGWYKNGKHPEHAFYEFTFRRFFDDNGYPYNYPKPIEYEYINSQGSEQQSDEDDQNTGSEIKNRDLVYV

Test [2] deals with T2, Serine/threonine-protein kinase Nek3 (Homo sapiens, UniProt P51956).
T2 sequence (P51956 whole entry): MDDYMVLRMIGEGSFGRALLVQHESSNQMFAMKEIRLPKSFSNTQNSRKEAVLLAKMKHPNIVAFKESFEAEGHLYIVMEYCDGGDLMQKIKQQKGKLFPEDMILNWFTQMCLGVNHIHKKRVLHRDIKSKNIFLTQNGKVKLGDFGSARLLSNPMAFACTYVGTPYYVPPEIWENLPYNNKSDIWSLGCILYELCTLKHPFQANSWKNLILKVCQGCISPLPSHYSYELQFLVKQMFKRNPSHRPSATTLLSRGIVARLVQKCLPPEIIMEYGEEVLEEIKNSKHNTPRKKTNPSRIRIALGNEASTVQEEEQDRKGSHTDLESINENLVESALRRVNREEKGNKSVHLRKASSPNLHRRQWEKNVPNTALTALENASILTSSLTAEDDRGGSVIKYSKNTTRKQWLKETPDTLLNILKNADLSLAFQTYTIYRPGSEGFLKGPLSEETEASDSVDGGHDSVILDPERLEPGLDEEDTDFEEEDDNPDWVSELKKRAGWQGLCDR

For test [3], the target named is Ribosomal protein S6 kinase alpha-4 (Homo sapiens, UniProt O75676).
Chain of Ribosomal protein S6 kinase alpha-4 (O75676 whole entry): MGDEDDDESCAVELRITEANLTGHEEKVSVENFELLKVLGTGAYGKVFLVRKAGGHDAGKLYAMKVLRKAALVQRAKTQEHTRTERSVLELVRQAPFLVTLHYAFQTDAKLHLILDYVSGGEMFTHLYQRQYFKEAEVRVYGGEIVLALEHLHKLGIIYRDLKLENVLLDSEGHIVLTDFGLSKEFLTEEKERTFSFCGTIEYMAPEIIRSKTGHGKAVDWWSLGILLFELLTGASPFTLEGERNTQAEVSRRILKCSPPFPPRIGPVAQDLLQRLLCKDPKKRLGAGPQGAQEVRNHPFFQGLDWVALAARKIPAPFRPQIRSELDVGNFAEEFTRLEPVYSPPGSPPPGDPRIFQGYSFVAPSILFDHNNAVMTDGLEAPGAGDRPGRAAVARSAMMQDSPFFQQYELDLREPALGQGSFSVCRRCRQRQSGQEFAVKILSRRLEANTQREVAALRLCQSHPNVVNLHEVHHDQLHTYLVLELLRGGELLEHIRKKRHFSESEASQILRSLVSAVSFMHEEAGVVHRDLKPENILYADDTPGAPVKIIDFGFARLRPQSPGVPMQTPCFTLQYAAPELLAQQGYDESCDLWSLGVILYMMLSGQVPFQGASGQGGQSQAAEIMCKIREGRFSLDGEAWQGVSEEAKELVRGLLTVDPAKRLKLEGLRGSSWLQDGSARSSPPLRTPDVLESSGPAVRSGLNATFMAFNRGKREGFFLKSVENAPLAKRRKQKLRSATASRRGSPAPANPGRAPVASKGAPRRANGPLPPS
In test [4] the target is Dual specificity mitogen-activated protein kinase kinase 1 (Homo sapiens, UniProt Q02750).
Chain of Dual specificity mitogen-activated protein kinase kinase 1 (Q02750 whole entry): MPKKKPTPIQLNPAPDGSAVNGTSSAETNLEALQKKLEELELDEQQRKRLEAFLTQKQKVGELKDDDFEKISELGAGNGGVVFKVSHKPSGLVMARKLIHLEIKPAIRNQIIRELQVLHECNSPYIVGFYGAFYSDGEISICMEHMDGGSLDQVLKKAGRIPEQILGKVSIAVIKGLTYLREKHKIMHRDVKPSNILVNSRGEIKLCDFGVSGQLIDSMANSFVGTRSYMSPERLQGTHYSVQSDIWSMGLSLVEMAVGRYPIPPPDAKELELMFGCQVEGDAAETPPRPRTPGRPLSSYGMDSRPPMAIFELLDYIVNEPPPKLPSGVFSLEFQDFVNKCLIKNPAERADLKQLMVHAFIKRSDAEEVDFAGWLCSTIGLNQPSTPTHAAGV
Test [5] addresses T3, ATP-dependent RNA helicase DDX42 (Homo sapiens, UniProt Q86XP3).
T3 sequence (Q86XP3 whole entry): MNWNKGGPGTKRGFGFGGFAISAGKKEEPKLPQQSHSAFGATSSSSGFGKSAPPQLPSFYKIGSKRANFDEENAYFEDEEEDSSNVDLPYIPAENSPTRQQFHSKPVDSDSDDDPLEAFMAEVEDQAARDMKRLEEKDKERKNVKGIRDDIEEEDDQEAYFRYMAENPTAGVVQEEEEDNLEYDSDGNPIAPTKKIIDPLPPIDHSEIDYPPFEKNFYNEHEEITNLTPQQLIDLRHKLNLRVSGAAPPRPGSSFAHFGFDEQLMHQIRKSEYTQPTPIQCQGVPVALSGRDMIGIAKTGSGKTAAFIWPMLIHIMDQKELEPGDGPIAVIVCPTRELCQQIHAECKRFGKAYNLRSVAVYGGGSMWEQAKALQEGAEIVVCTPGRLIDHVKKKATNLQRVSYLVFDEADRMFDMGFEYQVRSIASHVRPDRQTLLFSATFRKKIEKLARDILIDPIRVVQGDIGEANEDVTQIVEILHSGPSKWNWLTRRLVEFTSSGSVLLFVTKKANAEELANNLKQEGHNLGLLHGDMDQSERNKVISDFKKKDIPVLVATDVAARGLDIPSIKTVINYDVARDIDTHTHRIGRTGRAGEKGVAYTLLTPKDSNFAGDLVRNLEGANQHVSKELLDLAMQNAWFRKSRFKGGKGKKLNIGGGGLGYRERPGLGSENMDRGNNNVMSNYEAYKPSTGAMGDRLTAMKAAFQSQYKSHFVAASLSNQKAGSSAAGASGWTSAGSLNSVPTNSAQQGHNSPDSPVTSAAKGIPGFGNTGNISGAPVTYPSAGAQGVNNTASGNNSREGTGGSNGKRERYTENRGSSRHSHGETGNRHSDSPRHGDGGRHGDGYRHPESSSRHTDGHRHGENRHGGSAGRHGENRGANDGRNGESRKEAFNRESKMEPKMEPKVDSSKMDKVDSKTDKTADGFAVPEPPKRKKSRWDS

Test [6] has as its target Maternal embryonic leucine zipper kinase (Homo sapiens, UniProt Q14680).
Test [7] deals with Serine/threonine-protein kinase MRCK beta (Homo sapiens, UniProt Q9Y5S2).
Chain of Serine/threonine-protein kinase MRCK beta (Q9Y5S2 whole entry): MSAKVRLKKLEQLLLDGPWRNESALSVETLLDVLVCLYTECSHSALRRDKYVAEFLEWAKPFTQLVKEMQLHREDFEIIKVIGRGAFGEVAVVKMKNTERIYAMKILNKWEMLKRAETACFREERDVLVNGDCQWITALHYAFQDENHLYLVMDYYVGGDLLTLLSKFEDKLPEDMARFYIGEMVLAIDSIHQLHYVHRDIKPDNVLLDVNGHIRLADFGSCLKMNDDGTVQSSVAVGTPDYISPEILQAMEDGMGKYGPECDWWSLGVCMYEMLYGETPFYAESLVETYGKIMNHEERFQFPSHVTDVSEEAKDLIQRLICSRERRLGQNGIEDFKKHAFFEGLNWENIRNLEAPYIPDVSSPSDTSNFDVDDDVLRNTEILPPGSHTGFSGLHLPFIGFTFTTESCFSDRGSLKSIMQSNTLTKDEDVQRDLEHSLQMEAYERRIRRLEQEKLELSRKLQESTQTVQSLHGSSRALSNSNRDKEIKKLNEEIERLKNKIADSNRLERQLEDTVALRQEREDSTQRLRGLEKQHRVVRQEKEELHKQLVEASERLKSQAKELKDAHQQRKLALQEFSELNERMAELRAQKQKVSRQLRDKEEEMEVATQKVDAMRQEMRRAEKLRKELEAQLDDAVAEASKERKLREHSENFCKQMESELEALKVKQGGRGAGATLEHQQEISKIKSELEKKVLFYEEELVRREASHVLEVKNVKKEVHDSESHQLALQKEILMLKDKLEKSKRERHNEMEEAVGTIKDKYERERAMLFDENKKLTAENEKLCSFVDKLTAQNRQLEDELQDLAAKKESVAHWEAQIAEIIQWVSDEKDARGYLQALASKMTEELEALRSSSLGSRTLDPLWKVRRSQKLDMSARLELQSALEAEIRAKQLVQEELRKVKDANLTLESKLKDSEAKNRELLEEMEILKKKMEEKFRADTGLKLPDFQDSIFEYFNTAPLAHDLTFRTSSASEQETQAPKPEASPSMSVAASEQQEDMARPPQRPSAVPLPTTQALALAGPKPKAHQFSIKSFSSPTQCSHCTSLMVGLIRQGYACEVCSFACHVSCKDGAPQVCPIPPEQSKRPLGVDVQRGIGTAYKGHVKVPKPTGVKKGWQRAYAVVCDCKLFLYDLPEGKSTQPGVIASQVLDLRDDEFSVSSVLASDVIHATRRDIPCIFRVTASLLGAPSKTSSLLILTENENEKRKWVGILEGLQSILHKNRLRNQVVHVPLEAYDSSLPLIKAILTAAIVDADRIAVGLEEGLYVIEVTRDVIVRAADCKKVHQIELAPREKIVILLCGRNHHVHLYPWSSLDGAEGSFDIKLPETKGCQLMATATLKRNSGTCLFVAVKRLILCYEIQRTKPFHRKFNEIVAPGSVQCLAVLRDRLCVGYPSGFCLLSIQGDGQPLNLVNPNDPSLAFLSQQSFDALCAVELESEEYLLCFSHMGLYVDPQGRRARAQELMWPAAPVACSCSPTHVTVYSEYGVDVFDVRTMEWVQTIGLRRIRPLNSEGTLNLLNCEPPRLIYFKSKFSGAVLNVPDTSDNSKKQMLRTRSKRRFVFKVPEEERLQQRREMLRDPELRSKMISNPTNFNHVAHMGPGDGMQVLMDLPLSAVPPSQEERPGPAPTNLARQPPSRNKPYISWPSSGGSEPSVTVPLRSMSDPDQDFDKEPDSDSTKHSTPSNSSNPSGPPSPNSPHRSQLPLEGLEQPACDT
The target of test [8] is Atypical kinase COQ8A, mitochondrial (Homo sapiens, UniProt Q8NI60).
Chain of Atypical kinase COQ8A, mitochondrial (Q8NI60 whole entry): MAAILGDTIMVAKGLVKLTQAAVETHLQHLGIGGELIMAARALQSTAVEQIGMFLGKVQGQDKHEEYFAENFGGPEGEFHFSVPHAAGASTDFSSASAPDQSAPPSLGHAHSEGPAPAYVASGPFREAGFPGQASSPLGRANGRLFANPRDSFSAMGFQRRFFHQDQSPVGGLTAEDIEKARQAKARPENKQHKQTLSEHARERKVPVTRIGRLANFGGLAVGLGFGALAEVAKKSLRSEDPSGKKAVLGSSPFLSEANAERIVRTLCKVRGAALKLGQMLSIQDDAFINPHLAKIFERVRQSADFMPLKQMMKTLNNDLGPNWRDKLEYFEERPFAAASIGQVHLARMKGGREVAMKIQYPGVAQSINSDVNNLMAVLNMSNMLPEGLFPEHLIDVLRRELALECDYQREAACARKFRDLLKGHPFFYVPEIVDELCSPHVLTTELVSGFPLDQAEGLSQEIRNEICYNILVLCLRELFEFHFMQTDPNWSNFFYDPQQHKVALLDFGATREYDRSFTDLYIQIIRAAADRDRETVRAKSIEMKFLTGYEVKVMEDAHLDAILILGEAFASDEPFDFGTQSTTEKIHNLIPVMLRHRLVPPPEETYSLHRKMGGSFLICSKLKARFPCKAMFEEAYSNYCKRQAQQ

Chain of Maternal embryonic leucine zipper kinase (Q14680 whole entry): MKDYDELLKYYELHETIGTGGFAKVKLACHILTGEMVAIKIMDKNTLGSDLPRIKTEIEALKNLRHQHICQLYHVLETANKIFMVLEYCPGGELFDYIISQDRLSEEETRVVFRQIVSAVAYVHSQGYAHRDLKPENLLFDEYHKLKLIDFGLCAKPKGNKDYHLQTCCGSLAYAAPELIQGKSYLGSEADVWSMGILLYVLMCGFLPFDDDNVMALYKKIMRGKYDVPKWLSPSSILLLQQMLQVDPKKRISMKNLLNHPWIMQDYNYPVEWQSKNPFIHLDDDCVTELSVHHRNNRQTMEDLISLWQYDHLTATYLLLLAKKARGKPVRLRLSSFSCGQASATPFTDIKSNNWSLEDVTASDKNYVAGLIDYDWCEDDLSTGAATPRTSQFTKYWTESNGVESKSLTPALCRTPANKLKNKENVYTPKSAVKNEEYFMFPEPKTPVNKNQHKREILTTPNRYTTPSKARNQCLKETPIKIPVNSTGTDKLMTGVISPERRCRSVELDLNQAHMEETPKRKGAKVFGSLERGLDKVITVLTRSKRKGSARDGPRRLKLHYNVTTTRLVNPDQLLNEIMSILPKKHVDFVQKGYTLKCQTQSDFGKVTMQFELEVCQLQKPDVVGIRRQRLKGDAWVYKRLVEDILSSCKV

For orientation: Kd means the equilibrium constant for the complex coming apart. Regarding `C1=C/COCc2cc(ccc2OCCN2CCCC2)Nc2nccc(n2)-c2cccc(c2)COC/1` [PACRITINIB], the Kd in test [1], in test [2], in test [3], in test [4], in test [5] and in test [6] was > 30 µM (inactive) throughout. For the same compound, the Kd in test [7] and in test [8] was > 30 µM (inactive) in each case.

Take `O=C(O)[C@]1(Cc2cccc(Nc3nccs3)n2)CC[C@@H](Oc2cccc(Cl)c2F)CC1` [MK-5108]: the Kd in test [1], in test [2], in test [3], in test [4], in test [5] and in test [6] was > 30 µM (inactive) throughout. Besides, the Kd in test [7] and in test [8] was > 30 µM (inactive) in each case.

For `COc1cc2nccc(Oc3ccc(NC(=O)Nc4cc(C)on4)c(Cl)c3)c2cc1OC` [TIVOZANIB], the Kd in test [1], in test [2], in test [3], in test [4], in test [5] and in test [6] was > 30 µM (inactive) each time. Besides, the Kd in test [7] and in test [8] was > 30 µM (inactive) each time.

As for `COc1cc(N2CCC(N3CCN(C)CC3)CC2)ccc1Nc1ncnc(Nc2ccccc2S(=O)(=O)C(C)C)n1` [ASP-3026], the Kd in test [1], in test [2], in test [3], in test [4], in test [5] and in test [6] was > 30 µM (inactive) throughout. For the same compound, the Kd in test [7] and in test [8] was > 30 µM (inactive) throughout.

On to `CN1CCC(CNc2ccc3ncc(-c4cccc(OC(F)(F)F)c4)n3n2)CC1` [SGI-1776], for which the Kd in test [1], in test [2], in test [3], in test [4], in test [5] and in test [6] was > 30 µM (inactive) in each case. For the same compound, the Kd in test [7] and in test [8] was > 30 µM (inactive) each time.

As to `Cn1ncc(Cl)c1-c1cc(C(=O)N[C@H](CN)Cc2cccc(F)c2)sc1Cl` [AFURESERTIB], the Kd in test [1], in test [2], in test [3], in test [4], in test [5] and in test [6] was > 30 µM (inactive) throughout. Further, the Kd in test [7] and in test [8] was > 30 µM (inactive) in each case.

`CCCS(=O)(=O)Nc1ccc(F)c(C(=O)c2c[nH]c3ncc(-c4ccc(Cl)cc4)cc23)c1F` [VEMURAFENIB]: the Kd in test [1], in test [2], in test [3], in test [4], in test [5] and in test [6] was > 30 µM (inactive) throughout. For the same compound, the Kd in test [7] and in test [8] was > 30 µM (inactive) throughout.

Take `COCCNCc1ccc(-c2cc3nccc(Oc4ccc(NC(=S)NC(=O)Cc5ccc(F)cc5)cc4F)c3s2)nc1` [GLESATINIB]: the Kd in test [1], in test [2], in test [3], in test [4], in test [5] and in test [6] was > 30 µM (inactive) in each case. Besides, the Kd in test [7] and in test [8] was > 30 µM (inactive) each time.

Regarding `Cn1cc(-c2ccc3nnc(C(F)(F)c4ccc5ncccc5c4)n3n2)cn1` [JNJ-38877605], the Kd in test [1], in test [2], in test [3], in test [4], in test [5] and in test [6] was > 30 µM (inactive) each time. The Kd in test [7] and in test [8] was > 30 µM (inactive) throughout.

Consider `Cc1cc([C@@H](C)Nc2ccccc2C(=O)O)c2nc(N3CCOCC3)cc(=O)n2c1` [AZD-6482], for which the Kd in test [1], in test [2], in test [3], in test [4], in test [5] and in test [6] was > 30 µM (inactive) throughout. The Kd in test [7] and in test [8] was > 30 µM (inactive) in each case.

Take `CNC(=O)c1ccc(-c2cnc3ncc(Cc4ccc5ncccc5c4)n3n2)cc1F` [CAPMATINIB]: the Kd in test [1], in test [2], in test [3], in test [4], in test [5] and in test [6] was > 30 µM (inactive) each time. The Kd in test [7] and in test [8] was > 30 µM (inactive) each time.

Take `CN1CC[C@@H](c2c(O)cc(O)c3c(=O)cc(-c4ccccc4Cl)oc23)[C@@H]1CO`: the Kd in test [1] is > 30 µM (inactive); in test [2] it was > 30 µM (inactive); in test [3], > 30 µM (inactive); in test [4], > 30 µM (inactive); in test [5], 0.002 µM; in test [6], > 30 µM (inactive). The Kd in test [7] and in test [8] was > 30 µM (inactive) in each case.

As for `N[C@@H]1CCCN(c2c(/C=C3\SC(=O)NC3=O)cccc2-c2ccccc2)C1`, the Kd in test [1], in test [2], in test [3], in test [4], in test [5] and in test [6] was > 30 µM (inactive) throughout. Moreover, the Kd in test [7] and in test [8] was > 30 µM (inactive) in each case.
